Measured values reported in patent publication US6288067A, “Prophylactic or therapeutic agents for drug-induced renal injury” (Suntory Limited, priority 1998, dated 2001).

Key:
[1] = as reported in Japanese Patent Public Disclosure No. 25323/84; cited from earlier work
[2] = Biopterin (BP) level in blood by HPLC in cyclosporin-induced renal injury rats; format: in vivo, Sprague-Dawley rats; conditions: average; cyclosporin 15 mg/kg/day s.c. plus BH4 dihydrochloride 10 mg/kg/day oral
Experimental: (§1) Sprague-Dawley rats at the age of 8 to 10 weeks (supplied from Charles River) (300 g) were divided into the following three experimental groups, and examined by comparison. The animals were grown with a low-salt (0.05%) feed during the experimental period of 6 weeks, and treated for 5 weeks from the second to last weeks of the experiment as follows.
(§2) Each group was observed during the experimental period of 6 weeks. The blood pressure, renal cortical NOS activity and blood BP level were determined by the procedures described below. After 6 weeks, blood was collected from the abdominal aorta under anesthesia with phenobarbital, and then the kidney was perfused with physiological saline, then extracted and histologically examined for the effects of BH4 administration on cyclosporin-induced renal injury.
(§3) Group-to-group statistic analyses were made by two-way ANOVA. In the following analyses, the significance level was p<0.05.

[3] = tested on: cyclosporin-induced renal injury rats; experiment: Histopathological findings (arteriolopathy) in renal tissue samples, HE and periodic acid-Shiff staining; format: in vivo, Sprague-Dawley rats
Experimental: as §1, §2
After collecting urine and measuring blood pressure at week 6, the animals were abdominally incised under anesthesia, bled from the abdominal aorta and perfused with physiological saline via this site. The extracted kidney was fixed in a 10% formaldehyde solution, embedded in paraffin, then sliced by a microtome into renal tissue samples of 4 μm. The samples were stained with hematoxylin/eosin (HE) and periodic acid-Shiff. The incidences of pathological findings, i.e. arteriolopathy in the rat renal tissue samples were examined by comparison.
as §3

[4] = Acute toxicity, oral, rats; conditions: rat, in vivo, po
rats = experiment: Acute toxicity, oral, rats; conditions: rats, oral route
ED-1-positive cells = experiment: Renal histochemistry, staining with monoclonal antibody against macrophage cell membrane antigen ED-1; format: in vivo, Sprague-Dawley rats; conditions: frozen renal tissues; cyclosporin 15 mg/kg/day s.c.; BH4 group: plus BH4 dihydrochloride 10 mg/kg/day oral
Experimental: as §1, §2
(§4) Sections were prepared from frozen renal tissues and stained with NADPH-diaphorase for evaluating NOS activity on the tissues. The tissues were also stained with a monoclonal antibody against the macrophage cell membrane antigen ED-1 to examine the NOS isoform.

renal tissue NOS = experiment: Renal cortical NOS activity (3H-citrulline produced from 3H-arginine) in cyclosporin-induced renal injury rats; format: in vivo, Sprague-Dawley rats; conditions: orally administered BH4, cyclosporin-treated rats
Experimental: as §1, §2
NOS activity was determined by measuring ^3 H-citrulline produced by renal tissue NOS using 3H-arginine.
as §3

NOS (NADPH-diaphorase) = experiment: Renal histochemistry, NADPH-diaphorase staining; format: in vivo, Sprague-Dawley rats
Experimental: as §1, §2, §4

[5] = Blood pressure by the tail-cuff method in cyclosporin-induced renal injury rats; format: in vivo, Sprague-Dawley rats; conditions: until the end of observation (6 weeks); cyclosporin 15 mg/kg/day s.c.; BH4 group: plus BH4 dihydrochloride 10 mg/kg/day oral
Experimental: as §1, §2
Blood pressure was measured by the tail-cuff method at the start of the experiment and after 2, 4 and 6 weeks.
as §3

Row | SMILES | toxicity in words [1] | decrease of blood BP level as compared with CyA group [2] [nmol] | histopathological findings of arteriolopathy, conclusion in words ([3]; model rats, BH4 orally administered) | arteriolopathy, result in words with significance ([3]; p<0.0001, cyclosporin 15 mg/kg/day s.c., BH4 group: plus BH4 dihydrochloride 10 mg/kg/day oral) | Percentage of the incidence of pathological findings in renal tissues: Arteriolopathy ([3]; ± SE, week 6, control group 0.00 ± 0.00, cyclosporin 15 mg/kg/day s.c., BH4 group: plus BH4 dihydrochloride 10 mg/kg/day oral) [%] | LD50 [4] [mg/kg] | toxicity in words (rats) | invasions of ED-1-positive cells (ED-1-positive cells) | vascular endothelial NOS activity level / function (renal tissue NOS) | NADPH-diaphorase stainability (NOS (NADPH-diaphorase); frozen renal tissues, cyclosporin 15 mg/kg/day s.c., BH4 group: plus BH4 dihydrochloride 10 mg/kg/day oral) | functions of vascular endothelial NOS (NOS (NADPH-diaphorase); renal histochemistry, cyclosporin plus oral BH4 dihydrochloride) | Blood pressure [5]
1 | C[C@H](O)[C@H](O)C1CNc2nc(N)[nH]c(=O)c2N1 (stereo partly drawn) [(6R,S)-5,6,7,8-tetrahydrobiopterin] | only slightly toxic | – | – | – | – | – | – | – | – | – | – | –
2 | C[C@H](O)[C@H](O)[C@H]1CNc2nc(N)[nH]c(=O)c2N1 [BH4, (6R)-L-erythro-5,6,7,8-tetrahydrobiopterin] | – | 0.002 | remarkably improved histopathological findings | significantly (p<0.0001) inhibited arteriolopathy | 36.814 ± 2.093 | ≥ 2000 | little toxicity | decreased invasions of ED-1-positive cells | increased vascular endothelial NOS activity level | recovered the NADPH-diaphorase stainability | normalized the functions of vascular endothelial NOS | kept at a normal level
